Results on two compounds are retold here after patent US20240285627A1, “DRUG COMBINATION OF FAK INHIBITOR AND IMMUNOGENIC CELL DEATH INDUCER AND USE THEREOF” (INXMED (NANJING) CO., LTD., priority 2022, published 2024).

In general, IC50 refers to the concentration that inhibits the measured activity by half.

For experiment [1], the system named is mouse colon cancer CT26-KRAS G12C allograft tumor. In words: In vivo pharmacodynamic study, BALB/c mouse subcutaneous allograft tumor model of CT26-KRAS G12C cells (Example 8). As for the experimental part: Species: mice; Strain: BALB/c mice; Age and weight: 6-8 weeks old, weighing: 18-22 g; Gender: female; Quantity: 49 (excluding remaining mice after grouping); Supplier: LINGCHANG BIOTECH.
Mouse colon cancer CT26-KRAS G12C cells were cultured in monolayer in vitro. The culture conditions were RPMI1640 medium with 10% fetal bovine serum, 1% penicillin/streptomycin/amphotericin B, and 37° C. 5% CO2 incubator. Trypsin-EDTA was used twice a week for routine digestion and passage. When the cell saturation was 80%-90% and the number reached the requirements, the cells were collected, counted and inoculated.
0.1 mL (0.3×10^6 cells) of CT26-KRAS G12C cells were subcutaneously inoculated on the right back of each mouse, and grouping and drug administration began when the average tumor volume reached about 55 mm^3.
The diameter of tumor was measured three times a week with vernier caliper. The formula for calculating the tumor volume is: V=0.5×a×b^2, where a and b represent the long and short diameters of the tumor respectively.
The anti-tumor effect of the compound was evaluated by TGI (%) or relative tumor proliferation rate T/C(%). The relative tumor proliferation rate is T/C(%)=TRTV/CRTV×100% (TRTV: RTV in treatment group; CRTV: RTV in negative control group). According to the results of tumor measurement, the relative tumor volume (RTV) was calculated, and the calculation formula is RTV=Vt/V0, where V0 is the average tumor volume measured at the time of grouping and drug administration (i.e., D0), Vt is the average tumor volume measured at a certain time, and data on the same day were used for TRTV and CRTV.
TGI (%) reflects the tumor growth inhibition rate. TGI (%)=[1−(average tumor volume at the end of administration in a certain treatment group-average tumor volume at the beginning of administration in the treatment group)/(average tumor volume at the end of administration in solvent control group-average tumor volume at the beginning of administration in the solvent control group)]×100%.
Statistical analysis included the mean and standard error (SEM) of tumor volume at each time point in each group (see the specific data in Table 7). Based on the tumor volume data on the 19th day after administration, statistical analysis was performed to evaluate the differences between groups. T-test was used to analyze the comparison between two groups, and one-way ANOVA was used to analyze the comparison between three or more groups. If there was significant difference in F value, Games-Howell method was used for the test. If there was no significant difference in F value, Dunnet (2-sided) method was used for analysis. All data were analyzed by SPSS 17.0. P<0.05 was considered to have significant difference.

For experiment [2], the system named is Mouse colon cancer CT26 cells. Nature of the experiment: Induction of immunogenic cell death targets by Crizotinib and IN10018 in CT26 cells (Example 7). Conditions: CT26, 48 hours; IN10018 5 μM, Crizotinib 3 μM. The class given is cell-based. As for the experimental part:
CT26 cells were cultured in monolayer in vitro, and the culture conditions were: RPMI-1640 medium with 10% fetal bovine serum, 37° C. and 5% CO2. Trypsin was used for routine digestion and passage treatment two or three times a week. When the cells were in exponential growth period and the adherent confluence reached 80%-90%, the cells were collected and plated.
CT26 cells were digested with trypsin, then collected and counted. According to the counting results, the cells were diluted with RPMI-1640+10% FBS, and the dilution concentration was 50,000 cells per ml. Then, the cells were plated on 24-well culture plates, and 1 ml of cell suspension (50,000 cells) was laid in each well. After plating, the cells were cultured in 37° C. and 5% CO2 incubator. […]
After the cells were washed twice with flow buffer (DPBS+2% FBS), the cells in each group were divided into two parts on average, one of which was added with 0.5 μl of AF647 anti-Calreticulin antibody in each well, then mixed well, and incubated in the dark for 20 minutes at 4° C. […] The cells were cultured at room temperature in the dark for 15 minutes, and then analyzed by flow cytometry.
Data analysis: After the assay, the cell positive rate was analyzed by Flowjo(V10) software.

Experiment [3] relates to Mouse colon cancer CT26 cells. In words: Proliferation of CT26 cells, CCK8, MRTX1133 with or without IN10018 (Example 3). Conditions: 72 hours, combination group: 5 μM IN10018 added to each well. It counts as cell-based. As for the experimental part: Mouse colon cancer CT26 cells (Insitute of Biochemistry and Cell Biology) were cultured with RPMI-1640 (Shanghai Basalmedia, classification number: L210KJ, batch number: F210916)+10% FBS (Gibco, classification number: 10099-141c, batch number: 2158737cp) and passaged twice. When the cells were in good condition, the culture solution was placed in a 96-well plate with 3000 cells/well. After the cells were spread for 24 hours, a culture medium containing MRTX1133 (SuperLan Chemical Co., Ltd., classification number: P2621928-55-8, batch number: 131005) was added. 10 drug action concentrations were set, wherein the first concentration was 30 μM, which was serially diluted 5 times, and the last concentration was a control with a drug concentration of 0. Each drug concentration was set in triplicate. At the same time, another group of cells was established with the same drug concentration as the above method. The difference was that 5 μM IN10018 was added to each well. The drugs were mixed and the mixture was cultured in a 5% CO2 incubator at 37° C. for 72 hours.
After 72 hours of drug action, the cells were observed under a microscope, and 10 μl of CCK8 detection reagent (Cellorlab, classification number: CX001M, batch number: 2571100) was added to each well. […] Then the plate was read with a microplate reader OD450 ([…]).

The mark [4] stands for this setting: Day 19, D-1553 5 mg/kg PO QD, IN10018 25 mg/kg PO QD, INX0082 10 mg/kg IP BIW.

Several values for one entry are separate records, joined by “and”; a condition that tells them apart may be missing. Equal values may be shown once.

As to `COc1cc(C(=O)NC2CCN(C)CC2)c(F)cc1Nc1ncc(C(F)(F)F)c(Oc2cccc3c2C(=O)N(C)C3)n1` [IN10018], in experiment [1] (Day 0, at grouping, Average ± SEM, n = 7), the “Tumor volume (Day 0)” value is listed as 55 ± 3 mm^3. In addition, in experiment [1] (setting [4]), the “T/C (%) (Day 19)” value is listed as 74.7% and the “TGI (%) (Day 19)” value is 23.4%. In experiment [1] (Day 19, D-1553 5 mg/kg PO QD, IN10018 25 mg/kg PO QD, INX0082 10 mg/kg IP BIW, Average ± SEM, n = 7), the “Tumor volume (Day 19)” value was 1352 mm^3 and 1352 ± 284 mm^3. Besides, the “anti-tumor effect compared with the solvent control group” value in experiment [1] (Day 19, D-1553 5 mg/kg, IN10018 25 mg/kg, INX0082 10 mg/kg) is reported as “no anti-tumor effect”. The “cell state under a microscope (cell death; cell viability)” value in experiment [2] is on record as “better”.

As to `C#Cc1c(F)ccc2cc(O)cc(-c3ncc4c(N5CC6CCC(C5)N6)nc(OC[C@@]56CCCN5C[C@H](F)C6)nc4c3F)c12` [MRTX1133], in experiment [3], the IC50 amounted to 280 nM.
